This note sets out measurements from patent US9834548B2, “Pyridazine compounds as JAK inhibitors” (Portola Pharmaceuticals, Inc., priority 2014, dated 2017).

What is called pIC50 is −log10 of the IC50, conventionally taken in molar units.

pIC50: −log10 of the molar value.

Common to all, as to format: biochemical
One assay concerns the target JAK1 (Homo sapiens (Human), UniProt P23458). The experiment in a line: Purified kinase assay (Z'-LYTE), JAK1. The note with it: Table 1; read-out: JAK1 IC50. The procedure: (§1) JAK and TYK2 tyrosine phosphorylation activity is measured using the Z′-LYTE™ Technology developed by Invitrogen Corporation (Carlsbad, Calif.). For JAK1, JAK2 and JAK3 the Z′-LYTE™ Kinase Assay Kit-Tyr6 Peptide (part number PV4122) was used. For TYK2 the Z′-LYTE™ Kinase Assay Kit-Tyr6 Peptide (part number PV3192) was used. The Z′-LYTE™ biochemical assay employs a fluorescence resonance energy transfer (FRET) coupled-enzyme format and is based on the differential sensitivity of phosphorylated and non-phosphorylated peptides to proteolytic cleavage. The assay uses a synthetic peptide substrate that is labeled with a donor fluorophore (coumarin) and an acceptor fluorophore (fluorescein) that make up a FRET pair. In the primary reaction (the Kinase Reaction), the kinase transfers the γ-phosphate of ATP to a single tyrosine residue on the substrate, while the presence of a kinase inhibitor in the primary reaction suppresses phosphorylation. In the secondary reaction (the Development Reaction), a site-specific protease (the Development Reagent) is added. The development buffer quenches the Kinase Reaction, while the protease recognizes and cleaves non-phosphorylated Z′-LYTE™ peptide substrate. Cleavage disrupts FRET between the donor and acceptor fluorophores on the non-phosphorylated substrate, while uncleaved, phosphorylated substrate maintains FRET.
(§2) To test the ability of candidate molecules to inhibit JAK tyrosine phosphorylation activity, molecules are reconstituted in 100% DMSO and serially diluted 1:10 in polypropylene v-bottom microtiter plates. The candidate molecules are then diluted 1:25 into kinase buffer and 2.5 μl transferred into duplicate wells of a 384 well low volume black microtiter assay plate (Corning, USA). The final DMSO concentration in the assay is 1%. The kinase reaction contains 2.5 μl of a candidate molecule, 5 μl of catalytic domain recombinant Kinase enzyme+Tyr peptide substrate (Invitrogen, CA) and ATP (Invitrogen, CA). The kinase reaction is allowed to proceed for 1 hour at room temperature. The protease reaction is initiated by the addition of Development Reagent (Invitrogen, CA). After 1 hour incubation at room temperature the fluorescence is measured using a FlexStation plate reader (Molecular Devices, Sunnyvale, Calif.). The reader settings used are as follows: Fluorescence mode, endpoint, top read, excitation 400 nm, emission 445 nm and 520 nm, Auto Cutoff 435 nm and 515 nm, PMT sensitivity high, 6 reads per well Inhibition of JAK activity is calculated as the percent phosphorylation of substrate in the presence of inhibitor compared to the percent phosphorylation of substrate in the absence of inhibitor. IC50's were derived using Xlfit 4.3 (IDBS, UK), 4 parameter logistic model 205: Y=(A+((B−A)/(1+((C/x)^D)))).

Another assay concerns the target JAK2 (Homo sapiens (Human), UniProt O60674). The experiment in a line: Purified kinase assay (Z'-LYTE), JAK2. The following applies: Table 1; read-out: JAK2 IC50. How it is done:
as §1, §2

The next assay concerns the target JAK3 (Homo sapiens (Human), UniProt P52333). Put plainly: Purified kinase assay (Z'-LYTE), JAK3. The note with it: Table 1; read-out: JAK3 IC50. The procedure:
as §1, §2

Sequence of JAK2 (O60674 849-1124): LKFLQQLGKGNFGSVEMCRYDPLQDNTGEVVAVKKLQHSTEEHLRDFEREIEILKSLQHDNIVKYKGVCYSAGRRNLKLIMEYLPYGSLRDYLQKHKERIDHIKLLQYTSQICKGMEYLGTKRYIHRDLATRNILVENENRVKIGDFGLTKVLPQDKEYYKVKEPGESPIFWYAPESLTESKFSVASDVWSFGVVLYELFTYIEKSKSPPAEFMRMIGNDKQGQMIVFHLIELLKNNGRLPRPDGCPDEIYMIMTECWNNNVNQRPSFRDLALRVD
Sequence of JAK3 (P52333 822-1111): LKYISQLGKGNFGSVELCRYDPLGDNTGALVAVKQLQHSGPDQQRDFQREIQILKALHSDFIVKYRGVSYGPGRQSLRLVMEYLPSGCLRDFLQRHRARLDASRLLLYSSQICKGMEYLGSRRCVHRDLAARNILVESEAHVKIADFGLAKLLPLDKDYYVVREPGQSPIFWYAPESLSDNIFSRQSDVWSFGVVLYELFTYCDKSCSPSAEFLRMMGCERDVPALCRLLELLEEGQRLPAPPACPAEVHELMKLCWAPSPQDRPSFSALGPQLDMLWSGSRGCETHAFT
Sequence of JAK1 (P23458 875-1153): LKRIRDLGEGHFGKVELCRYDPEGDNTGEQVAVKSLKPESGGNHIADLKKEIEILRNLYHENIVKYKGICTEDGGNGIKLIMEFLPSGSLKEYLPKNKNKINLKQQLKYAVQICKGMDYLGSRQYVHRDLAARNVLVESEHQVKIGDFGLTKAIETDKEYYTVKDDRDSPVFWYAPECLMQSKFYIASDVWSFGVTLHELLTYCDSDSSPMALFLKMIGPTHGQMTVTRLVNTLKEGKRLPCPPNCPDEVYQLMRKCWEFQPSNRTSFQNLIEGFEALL

Take `CC(=O)N1CCN(c2ccc(Nc3cc(NCc4ccccn4)c(C(N)=O)nn3)cc2)CC1` [Compound 78]: the pIC50 was less than 6.00 at JAK1, less than 6.00 on JAK2 and 6.00 to 7.00 on JAK3.
In the case of `CC(=O)N1CCN(c2ccc(Nc3cc(NCc4cccnc4)c(C(N)=O)nn3)cc2)CC1` [Compound 79], the pIC50 on JAK1 was less than 6.00; at JAK2, less than 6.00; on JAK3 it was 6.00 to 7.00.
As for `NC(=O)c1nnc(Nc2ccc(C(=O)N3CCOCC3)cc2)cc1NCc1cccc(F)c1` [Compound 80], the pIC50 is less than 6.00 at JAK1, 6.00 to 7.00 at JAK2 and 7.00 to 8.00 at JAK3.
For `CC(=O)N1CCN(C(=O)c2ccc(Nc3cc(NCc4cccc(F)c4)c(C(N)=O)nn3)cc2)CC1` [Compound 81] the same measures were less than 6.00, 6.00 to 7.00 and 7.00 to 8.00.
Taken in the same sequence, the figures for `NC(=O)c1nnc(Nc2ccc(C(=O)N3CCCC3)cc2)cc1NCc1cc(F)cc(F)c1` [Compound 82] were 6.00 to 7.00, 6.00 to 7.00 and 8.00 to 9.00.
For `NC(=O)c1nnc(Nc2ccc(C(=O)N3CCCC3)cc2)cc1NCc1cccc(F)c1F` [Compound 83] the same measures were less than 6.00, 6.00 to 7.00 and 8.00 to 9.00.
`CS(=O)(=O)c1ccc(Nc2cc(NCc3cccc(F)c3)c(C(N)=O)nn2)cc1` [Compound 84]: the results for the pIC50 at JAK1, on JAK2 and on JAK3 were less than 6.00, less than 6.00 and 6.00 to 7.00, respectively.
Turning to `CS(=O)(=O)Cc1ccc(Nc2cc(NCc3cccc(F)c3)c(C(N)=O)nn2)cc1` [Compound 85], the pIC50 on JAK1 was 6.00 to 7.00; on JAK2, 6.00 to 7.00; at JAK3, 7.00 to 8.00.
With `CN(C)C(=O)C1CCN(c2ccc(Nc3cc(NCc4ccccc4F)c(C(N)=O)nn3)cc2)CC1` [Compound 86], the pIC50 on JAK1 was less than 6.00; on JAK2, 6.00 to 7.00; on JAK3 it was 7.00 to 8.00.
As to `CS(=O)(=O)Cc1ccc(Nc2cc(NCc3c(F)cccc3F)c(C(N)=O)nn2)cc1` [Compound 87], the pIC50 at JAK1 was 6.00 to 7.00; at JAK2, 6.00 to 7.00; on JAK3, 8.00 to 9.00.
As to `CS(=O)(=O)Cc1ccc(Nc2cc(NCc3cc(F)ccc3F)c(C(N)=O)nn2)cc1` [Compound 88], the pIC50 at JAK1 is 6.00 to 7.00; at JAK2, 6.00 to 7.00; on JAK3 it was 8.00 to 9.00.
With `CN(C)C(=O)C1CCN(c2ccc(Nc3cc(NCc4cccc(F)c4)c(C(N)=O)nn3)cc2)CC1` [Compound 90], the pIC50 is less than 6.00 on JAK1, 6.00 to 7.00 on JAK2 and 7.00 to 8.00 at JAK3.
Take `CS(=O)(=O)Cc1cccc(Nc2cc(NCc3cccc(F)c3)c(C(N)=O)nn2)c1` [Compound 91]: the pIC50 is less than 6.00 on JAK1, less than 6.00 on JAK2 and 7.00 to 8.00 on JAK3.
As to `CC(=O)N1CCN(c2ccc(Nc3cc(NC4CCN(c5ccc(C#N)cn5)CC4)c(C(N)=O)nn3)cc2)CC1` [Compound 92], the pIC50 on JAK1, on JAK2 and at JAK3 was 7.00 to 8.00 throughout.
As to `CS(=O)(=O)Cc1ccc(Nc2cc(NC3CCN(c4ccc(C#N)cn4)CC3)c(C(N)=O)nn2)cc1` [Compound 93], the pIC50 at JAK1, at JAK2 and at JAK3 was 7.00 to 8.00 in each case.
In the case of `NC(=O)c1nnc(Nc2ccc(N3CCS(=O)(=O)CC3)cc2)cc1NCc1cccc(F)c1` [Compound 94], the pIC50 at JAK1 is less than 6.00; on JAK2 it was 6.00 to 7.00; at JAK3, 8.00 to 9.00.
Taken in the same sequence, the figures for `CC(C)(c1ccc(Nc2cc(NCc3cccc(F)c3)c(C(N)=O)nn2)cc1)S(C)(=O)=O` [Compound 95] were less than 6.00, 6.00 to 7.00 and 7.00 to 8.00.
Taken in the same sequence, the figures for `CC(c1ccc(Nc2cc(NCc3cccc(F)c3)c(C(N)=O)nn2)cc1)S(C)(=O)=O` (stereo not drawn) [Compound 96] were 6.00 to 7.00, 6.00 to 7.00 and 7.00 to 8.00.
For `N#Cc1ccc(N2CCC(Nc3cc(Nc4cnccn4)nnc3C(N)=O)CC2)nc1` [Compound 97] the same measures were 8.00 to 9.00, 8.00 to 9.00 and 8.00 to 9.00.
On to `CS(=O)(=O)Cc1ccc(Nc2cc(NCc3cccc4ccsc34)c(C(N)=O)nn2)cc1` [Compound 100], for which the results for the pIC50 at JAK1, on JAK2 and at JAK3 were 6.00 to 7.00, 6.00 to 7.00 and 8.00 to 9.00, respectively.
Take `CC(=O)N(C)c1ccc(Nc2cc(NCc3cccc(F)c3)c(C(N)=O)nn2)cc1` [Compound 101]: the pIC50 is less than 6.00 at JAK1, 6.00 to 7.00 on JAK2 and 6.00 to 7.00 on JAK3.
Turning to `CN(c1ccc(Nc2cc(NCc3cccc(F)c3)c(C(N)=O)nn2)cc1)S(C)(=O)=O` [Compound 102], the negative-log IC50 (pIC50) on JAK1 is less than 6.00; on JAK2, 6.00 to 7.00; on JAK3, 7.00 to 8.00.
On to `CC(=O)N1CCN(c2ccc(Nc3cc(NCc4cc(-n5ccnc5)ccc4F)c(C(N)=O)nn3)cc2)CC1` [Compound 103], for which the values for the pIC50 at JAK1, on JAK2 and at JAK3 were less than 6.00, 6.00 to 7.00 and 7.00 to 8.00, respectively.
For `CC(=O)N1CCN(c2ccc(Nc3cc(NCc4cc(-c5cccnc5)ccc4F)c(C(N)=O)nn3)cc2)CC1` [Compound 104] the same measures were less than 6.00, 6.00 to 7.00 and 7.00 to 8.00.
For `C[S+]([O-])Cc1ccc(Nc2cc(NCc3cccc(F)c3)c(C(N)=O)nn2)cc1` (stereo not drawn) [Compound 105] the same measures were 6.00 to 7.00, 6.00 to 7.00 and 7.00 to 8.00.
For `CC(C)n1cc(Nc2cc(NCc3cccc(F)c3)c(C(N)=O)nn2)cn1` [Compound 106] the same measures were less than 6.00, 6.00 to 7.00 and 7.00 to 8.00.
`NC(=O)c1nnc(Nc2ccc3c(c2)CS(=O)(=O)C3)cc1NCc1cccc(F)c1` [Compound 107]: the pIC50 is less than 6.00 on JAK1, 6.00 to 7.00 on JAK2 and 7.00 to 8.00 at JAK3.
Taken in the same sequence, the figures for `CS(=O)(=O)CCc1ccc(Nc2cc(NCc3cccc(F)c3)c(C(N)=O)nn2)cc1` [Compound 108] were less than 6.00, 6.00 to 7.00 and 7.00 to 8.00.
Taken in the same sequence, the figures for `CCC(=O)N1CCN(c2ccc(Nc3cc(NCc4cccc5[nH]ccc45)c(C(N)=O)nn3)cc2)CC1` [Compound 110] were 7.00 to 8.00, 7.00 to 8.00 and 8.00 to 9.00.
For `NC(=O)c1nnc(Nc2cnccn2)cc1NCc1cccc(-n2ccnc2)c1` [Compound 111] the same measures were less than 6.00, less than 6.00 and 6.00 to 7.00.
As for `CC(C)n1cc(Nc2cc(NCc3cccc4ccsc34)c(C(N)=O)nn2)cn1` [Compound 112], the pIC50 is 6.00 to 7.00 on JAK1, 7.00 to 8.00 on JAK2 and 8.00 to 9.00 on JAK3.
As to `CC(C)n1cc(Nc2cc(NCc3c(F)cccc3F)c(C(N)=O)nn2)cn1` [Compound 113], the pIC50 on JAK1 is 6.00 to 7.00; at JAK2 it was 7.00 to 8.00; at JAK3 it was 8.00 to 9.00.
For `CC(C)n1cc(Nc2cc(NCc3cccc(F)c3F)c(C(N)=O)nn2)cn1` [Compound 114] the same measures were 6.00 to 7.00, 6.00 to 7.00 and 7.00 to 8.00.
Taken in the same sequence, the figures for `NC(=O)c1nnc(Nc2cnn(C3CCCC3)c2)cc1NCc1cccc2ccsc12` [Compound 115] were less than 6.00, 7.00 to 8.00 and 7.00 to 8.00.
